According to PubChem BioAssay (NCI):
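In this assay, cells in 96-well plates receive the compound at five concentrations for 48 hours. Endpoints are linearly interpolated between the surrounding concentrations. TGI: total growth inhibition.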

Columns and labels:
Assay in all cases: inhibition of tumour cell growth, NCI panel, 48 h
786-0 renal = test system: 786-0 renal
U251 CNS = test system: U251 CNS
MALME-3M melanoma = test system: MALME-3M melanoma
SNB-19 CNS = test system: SNB-19 CNS
HOP-92 NSCLC = test system: HOP-92 NSCLC
OVCAR-3 ovarian = test system: OVCAR-3 ovarian
ACHN renal = test system: ACHN renal
CCRF-CEM leukemia = test system: CCRF-CEM leukemia
RXF 393 renal = test system: RXF 393 renal
HT29 colon = test system: HT29 colon
SK-MEL-28 melanoma = test system: SK-MEL-28 melanoma
K-562 leukemia = test system: K-562 leukemia
MDA-MB-231 breast = test system: MDA-MB-231 breast
HCT-116 colon = test system: HCT-116 colon
NCI-H226 lung = test system: NCI-H226 lung
IGROV1 ovarian = test system: IGROV1 ovarian
NCI-H460 lung = test system: NCI-H460 lung
RPMI-8226 leukemia = test system: RPMI-8226 leukemia
OVCAR-5 ovarian = test system: OVCAR-5 ovarian

## Cc1c2c(c(C)n1-c1ccccc1)C(=O)N(CCSC(=N)N)C2=O
786-0 renal
  TGI: > 100 µM
U251 CNS
  TGI: > 100 µM
MALME-3M melanoma
  TGI: > 100 µM
SNB-19 CNS
  TGI: > 100 µM
HOP-92 NSCLC
  TGI: > 100 µM
OVCAR-3 ovarian
  TGI: > 100 µM
ACHN renal
  TGI: > 100 µM
CCRF-CEM leukemia
  TGI: > 100 µM
RXF 393 renal
  TGI: > 100 µM
HT29 colon
  TGI: > 100 µM
SK-MEL-28 melanoma
  TGI: > 100 µM
K-562 leukemia
  TGI: > 100 µM
MDA-MB-231 breast
  TGI: > 100 µM
HCT-116 colon
  TGI: > 100 µM
NCI-H226 lung
  TGI: > 100 µM
IGROV1 ovarian
  TGI: > 100 µM
NCI-H460 lung
  TGI: > 100 µM
RPMI-8226 leukemia
  TGI: > 100 µM
OVCAR-5 ovarian
  TGI: > 100 µM

## C[C@H](CCC1=NCCN1)[C@H]1CC[C@H]2[C@@H]3[C@H](O)C[C@@H]4C[C@H](O)CC[C@]4(C)[C@H]3CC[C@]12C
786-0 renal
  TGI: 27.7 µM
U251 CNS
  TGI: 26.5 µM
MALME-3M melanoma
  TGI: 29.2 µM
SNB-19 CNS
  TGI: 26.1 µM
HOP-92 NSCLC
  TGI: 21.8 µM
OVCAR-3 ovarian
  TGI: 26.6 µM
ACHN renal
  TGI: 30 µM
CCRF-CEM leukemia
  TGI: 32.9 µM
RXF 393 renal
  TGI: 31.6 µM
HT29 colon
  TGI: 10.4 µM
SK-MEL-28 melanoma
  TGI: 27.2 µM
K-562 leukemia
  TGI: 21.6 µM
MDA-MB-231 breast
  TGI: 33.5 µM
HCT-116 colon
  TGI: 26.4 µM
NCI-H226 lung
  TGI: 30.2 µM
IGROV1 ovarian
  TGI: 23.9 µM
NCI-H460 lung
  TGI: 24.3 µM
RPMI-8226 leukemia
  TGI: 35.3 µM
OVCAR-5 ovarian
  TGI: 27.5 µM

## O=C(O)c1cccc(S(=O)(=O)NN2C(=O)CSC2c2ccccc2)c1 (configuration not stated)
786-0 renal
  TGI: > 100 µM
U251 CNS
  TGI: > 100 µM
MALME-3M melanoma
  TGI: > 100 µM
SNB-19 CNS
  TGI: > 100 µM
HOP-92 NSCLC
  TGI: > 100 µM
OVCAR-3 ovarian
  TGI: > 100 µM
ACHN renal
  TGI: > 100 µM
CCRF-CEM leukemia
  TGI: > 100 µM
RXF 393 renal
  TGI: > 100 µM
HT29 colon
  TGI: > 100 µM
SK-MEL-28 melanoma
  TGI: > 100 µM
K-562 leukemia
  TGI: > 100 µM
MDA-MB-231 breast
  TGI: > 100 µM
HCT-116 colon
  TGI: > 100 µM
NCI-H226 lung
  TGI: > 100 µM
IGROV1 ovarian
  TGI: > 100 µM
NCI-H460 lung
  TGI: > 100 µM
RPMI-8226 leukemia
  TGI: > 100 µM
OVCAR-5 ovarian
  TGI: > 100 µM

## CSc1c(C(=O)Nc2ccc(C)cc2)c(N)nn1-c1ccccc1
786-0 renal
  TGI: 45 µM
U251 CNS
  TGI: > 100 µM
MALME-3M melanoma
  TGI: 75.7 µM
SNB-19 CNS
  TGI: > 100 µM
HOP-92 NSCLC
  TGI: 88.1 µM
OVCAR-3 ovarian
  TGI: > 100 µM
ACHN renal
  TGI: > 100 µM
CCRF-CEM leukemia
  TGI: > 100 µM
RXF 393 renal
  TGI: 75.3 µM
HT29 colon
  TGI: > 100 µM
SK-MEL-28 melanoma
  TGI: > 100 µM
K-562 leukemia
  TGI: > 100 µM
MDA-MB-231 breast
  TGI: > 100 µM
HCT-116 colon
  TGI: > 100 µM
NCI-H226 lung
  TGI: > 100 µM
IGROV1 ovarian
  TGI: > 100 µM
NCI-H460 lung
  TGI: 42.9 µM
RPMI-8226 leukemia
  TGI: > 100 µM
OVCAR-5 ovarian
  TGI: > 100 µM

## OC1c2ccccc2[C@@H]2[C@H]1[C@@H](c1ccccc1)C1(Cc3ccccc3C1O)[C@H]2c1ccccc1 (some centres not stated)
786-0 renal
  TGI: 8.28 µM
U251 CNS
  TGI: 14.1 µM
MALME-3M melanoma
  TGI: 17.9 µM
SNB-19 CNS
  TGI: 26.5 µM
HOP-92 NSCLC
  TGI: 12.6 µM
OVCAR-3 ovarian
  TGI: 6.27 µM
ACHN renal
  TGI: 16.7 µM
CCRF-CEM leukemia
  TGI: 12.7 µM
RXF 393 renal
  TGI: 4.83 µM
HT29 colon
  TGI: 6.87 µM
SK-MEL-28 melanoma
  TGI: 22.1 µM
K-562 leukemia
  TGI: 10.7 µM
MDA-MB-231 breast
  TGI: 20.3 µM
HCT-116 colon
  TGI: 14.5 µM
NCI-H226 lung
  TGI: 19.4 µM
IGROV1 ovarian
  TGI: 16.6 µM
NCI-H460 lung
  TGI: 10.2 µM
RPMI-8226 leukemia
  TGI: 9.89 µM
OVCAR-5 ovarian
  TGI: 23.2 µM

## Nc1nc(Cl)c(C=O)c(NCC2(CO)CC(CCc3ccccc3)C2)n1 (configuration not stated)
786-0 renal
  TGI: 69.5 µM
U251 CNS
  TGI: 26.6 µM
MALME-3M melanoma
  TGI: 30.2 µM
SNB-19 CNS
  TGI: 27.9 µM
HOP-92 NSCLC
  TGI: 4.46 µM
OVCAR-3 ovarian
  TGI: 24.4 µM
ACHN renal
  TGI: 25.8 µM
CCRF-CEM leukemia
  TGI: 31.8 µM
RXF 393 renal
  TGI: 31.5 µM
HT29 colon
  TGI: 27.7 µM
SK-MEL-28 melanoma
  TGI: 12.1 µM
K-562 leukemia
  TGI: 4.57 µM
MDA-MB-231 breast
  TGI: 23.7 µM
HCT-116 colon
  TGI: 27.3 µM
NCI-H226 lung
  TGI: 27.7 µM
IGROV1 ovarian
  TGI: 3.48 µM
NCI-H460 lung
  TGI: 33.8 µM
RPMI-8226 leukemia
  TGI: 35.8 µM
OVCAR-5 ovarian
  TGI: 33.3 µM

## CC[C@@H](CCCC[C@@H]1CC[C@H]2CC(=O)C[C@@H]12)OC
786-0 renal
  TGI: > 100 µM
U251 CNS
  TGI: > 100 µM
MALME-3M melanoma
  TGI: > 100 µM
SNB-19 CNS
  TGI: > 100 µM
HOP-92 NSCLC
  TGI: > 100 µM
OVCAR-3 ovarian
  TGI: > 100 µM
ACHN renal
  TGI: > 100 µM
CCRF-CEM leukemia
  TGI: > 100 µM
RXF 393 renal
  TGI: > 100 µM
HT29 colon
  TGI: > 100 µM
SK-MEL-28 melanoma
  TGI: > 100 µM
K-562 leukemia
  TGI: > 100 µM
MDA-MB-231 breast
  TGI: > 100 µM
HCT-116 colon
  TGI: > 100 µM
NCI-H226 lung
  TGI: > 100 µM
IGROV1 ovarian
  TGI: > 100 µM
NCI-H460 lung
  TGI: > 100 µM
RPMI-8226 leukemia
  TGI: > 100 µM
OVCAR-5 ovarian
  TGI: > 100 µM

## CC(=O)Nc1ccc(Nc2cc(=O)n(C)c(=O)[nH]2)cc1
786-0 renal
  TGI: > 100 µM
U251 CNS
  TGI: > 100 µM
MALME-3M melanoma
  TGI: > 100 µM
SNB-19 CNS
  TGI: > 100 µM
HOP-92 NSCLC
  TGI: > 100 µM
OVCAR-3 ovarian
  TGI: > 100 µM
ACHN renal
  TGI: > 100 µM
CCRF-CEM leukemia
  TGI: > 100 µM
RXF 393 renal
  TGI: > 100 µM
HT29 colon
  TGI: > 100 µM
SK-MEL-28 melanoma
  TGI: > 100 µM
K-562 leukemia
  TGI: > 100 µM
MDA-MB-231 breast
  TGI: > 100 µM
HCT-116 colon
  TGI: > 100 µM
NCI-H226 lung
  TGI: > 100 µM
IGROV1 ovarian
  TGI: > 100 µM
NCI-H460 lung
  TGI: > 100 µM
RPMI-8226 leukemia
  TGI: > 100 µM
OVCAR-5 ovarian
  TGI: > 100 µM

## CSCCC(NCc1c(O)ccc2ccc(=O)oc12)C(=O)O (configuration not stated)
786-0 renal
  TGI: > 100 µM
U251 CNS
  TGI: > 100 µM
MALME-3M melanoma
  TGI: > 100 µM
SNB-19 CNS
  TGI: > 100 µM
HOP-92 NSCLC
  TGI: > 100 µM
OVCAR-3 ovarian
  TGI: > 100 µM
ACHN renal
  TGI: > 100 µM
CCRF-CEM leukemia
  TGI: > 100 µM
RXF 393 renal
  TGI: > 100 µM
HT29 colon
  TGI: > 100 µM
SK-MEL-28 melanoma
  TGI: > 100 µM
K-562 leukemia
  TGI: > 100 µM
MDA-MB-231 breast
  TGI: > 100 µM
HCT-116 colon
  TGI: > 100 µM
NCI-H226 lung
  TGI: > 100 µM
IGROV1 ovarian
  TGI: > 100 µM
NCI-H460 lung
  TGI: > 100 µM
RPMI-8226 leukemia
  TGI: > 100 µM
OVCAR-5 ovarian
  TGI: > 100 µM

## CC(C)(C)c1cc(C(=O)/C=C/c2ccc(O)c(O)c2O)cc(C(C)(C)C)c1O
786-0 renal
  TGI: 28.8 µM
U251 CNS
  TGI: 12.3 µM
MALME-3M melanoma
  TGI: > 67.5 µM
SNB-19 CNS
  TGI: > 29.3 µM
HOP-92 NSCLC
  TGI: > 42.6 µM
OVCAR-3 ovarian
  TGI: > 100 µM
ACHN renal
  TGI: 18.9 µM
CCRF-CEM leukemia
  TGI: 7.84 µM
RXF 393 renal
  TGI: 13.3 µM
HT29 colon
  TGI: 27.7 µM
SK-MEL-28 melanoma
  TGI: 28.1 µM
K-562 leukemia
  TGI: 21.7 µM
MDA-MB-231 breast
  TGI: 36 µM
HCT-116 colon
  TGI: 12.7 µM
NCI-H226 lung
  TGI: 33.2 µM
IGROV1 ovarian
  TGI: 43.9 µM
NCI-H460 lung
  TGI: 6.56 µM
RPMI-8226 leukemia
  TGI: 4.4 µM
OVCAR-5 ovarian
  TGI: 39.1 µM

## Oc1c(C2=NNC(c3cccs3)C2)ccc2ccccc12 (configuration not stated)
786-0 renal
  TGI: > 100 µM
U251 CNS
  TGI: 69.5 µM
MALME-3M melanoma
  TGI: > 100 µM
HOP-92 NSCLC
  TGI: 81.5 µM
OVCAR-3 ovarian
  TGI: 43.5 µM
ACHN renal
  TGI: > 100 µM
CCRF-CEM leukemia
  TGI: 37.4 µM
RXF 393 renal
  TGI: > 100 µM
HT29 colon
  TGI: 40 µM
SK-MEL-28 melanoma
  TGI: > 100 µM
K-562 leukemia
  TGI: 44 µM
MDA-MB-231 breast
  TGI: 91.2 µM
HCT-116 colon
  TGI: 30.6 µM
NCI-H226 lung
  TGI: > 100 µM
IGROV1 ovarian
  TGI: 95.9 µM
NCI-H460 lung
  TGI: 43.4 µM
RPMI-8226 leukemia
  TGI: 77.9 µM
OVCAR-5 ovarian
  TGI: > 100 µM

## O=C(NCCN1C(=O)CN=C(c2ccc(Cl)cc2)c2cc(Cl)ccc21)OCc1ccccc1
786-0 renal
  TGI: 28.9 µM
U251 CNS
  TGI: 30.1 µM
MALME-3M melanoma
  TGI: 31.6 µM
SNB-19 CNS
  TGI: 50.8 µM
HOP-92 NSCLC
  TGI: 31.2 µM
OVCAR-3 ovarian
  TGI: 26 µM
ACHN renal
  TGI: 32.1 µM
CCRF-CEM leukemia
  TGI: 63.1 µM
RXF 393 renal
  TGI: 23.8 µM
HT29 colon
  TGI: 31.8 µM
SK-MEL-28 melanoma
  TGI: > 100 µM
K-562 leukemia
  TGI: 31.1 µM
MDA-MB-231 breast
  TGI: 32.3 µM
HCT-116 colon
  TGI: 24.8 µM
NCI-H226 lung
  TGI: 35.5 µM
IGROV1 ovarian
  TGI: 37.8 µM
NCI-H460 lung
  TGI: 32.4 µM
RPMI-8226 leukemia
  TGI: 53.9 µM
OVCAR-5 ovarian
  TGI: 49.7 µM
